The source of these data is US12187709B2 (Genentech, Inc., priority 2021, dated 2025).

Assay [1] concerns the target c-Cbl (residues 47-435) (Homo sapiens (Human), UniProt P22681). As to the kind of experiment: c-Cbl SPR assay. Conditions: 20° C. The class given is binding. In outline: (§1)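 Where a chaser compound was used, % compound bound was calculated as (1−(RUT/RUT0))*100 relative to a prior chaser injection and fitted to a single exponential for kd. The single cycle titration (max 500 nM) was then fitted with kd held fixed.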

Assay [2] has as its target Cbl-b (Homo sapiens (Human), UniProt Q13191). The assay is described as follows: Cbl-b LCK Ub TR-FRET assay (Cbl-b Lck HTRF). In kind it is biochemical. Conditions: for IC50: Cbl-b LCK Ub TR-FRET; for fold-selectivity (Cbl-b over C-cbl): ratio C-cbl Lck HTRF IC50 / Cbl-b Lck HTRF IC50. In outline:
(§2)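 Signal is read once the detection mix has stood 20 min at ambient temperature. Curves are anchored by DMSO as maximum and by omission of LCK as minimum.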

Assay [3] has as its target c-Cbl (Homo sapiens (Human), UniProt P22681). As to the kind of experiment: C-Cbl LCK Ub TR-FRET assay (C-cbl Lck HTRF). The class given is biochemical. In outline:
as §2

Assay [4] addresses Human Cbl-b (residues 40-426) (Homo sapiens (Human), UniProt Q13191). As to the kind of experiment: Cbl-b SPR assay. In kind it is binding. Conditions: for Fold of selectivity: C-cbl SPR Kd vs Cbl-b SPR Kd; for Kd: SPR, 20° C. In outline:
as §1

Sequence of c-Cbl (residues 47-435) (P22681 47-435): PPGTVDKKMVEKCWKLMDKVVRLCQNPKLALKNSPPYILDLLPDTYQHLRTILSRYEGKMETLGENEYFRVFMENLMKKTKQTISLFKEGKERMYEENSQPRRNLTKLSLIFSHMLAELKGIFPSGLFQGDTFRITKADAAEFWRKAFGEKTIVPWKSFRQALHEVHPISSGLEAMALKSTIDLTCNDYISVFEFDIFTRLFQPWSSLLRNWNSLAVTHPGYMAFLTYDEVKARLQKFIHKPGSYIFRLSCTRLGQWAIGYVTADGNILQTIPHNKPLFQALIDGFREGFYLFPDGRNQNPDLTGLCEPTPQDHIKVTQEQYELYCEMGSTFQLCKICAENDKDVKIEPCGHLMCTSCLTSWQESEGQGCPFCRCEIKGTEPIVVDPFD
Sequence of c-Cbl (P22681 47-435): as above
Sequence of Cbl-b (Q13191 40-426): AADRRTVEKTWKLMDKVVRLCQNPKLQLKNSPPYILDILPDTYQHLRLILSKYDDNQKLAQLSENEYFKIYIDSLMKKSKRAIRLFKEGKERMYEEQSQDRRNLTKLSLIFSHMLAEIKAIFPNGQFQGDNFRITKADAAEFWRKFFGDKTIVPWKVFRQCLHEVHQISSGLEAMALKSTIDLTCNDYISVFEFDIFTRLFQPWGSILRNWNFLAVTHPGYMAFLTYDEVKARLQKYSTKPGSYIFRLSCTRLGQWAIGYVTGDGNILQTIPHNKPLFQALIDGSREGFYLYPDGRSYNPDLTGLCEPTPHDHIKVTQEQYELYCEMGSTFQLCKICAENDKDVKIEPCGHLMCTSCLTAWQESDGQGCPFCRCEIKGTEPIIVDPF
Sequence of Human Cbl-b (residues 40-426) (Q13191 40-426): as above

As to `C[C@H](c1cccc(N2Cc3c(cc(CNC4(C)CCC4)cc3C(F)(F)F)C2=O)c1)c1nncn1C` (single isomer, unassigned) [Compound 170], the Kd came to 15 nM in assay [1] and 4.9 nM in assay [4]. Moreover, the IC50 in assay [2] and in assay [3] was 12 nM in each case. The “fold-selectivity (Cbl-b over C-cbl)” value in assay [2] came to 1.0x. In assay [4], this compound registered a Fold of selectivity of 2.8×.

In assay [1], `C[C@@H](c1cccc(N2Cc3c(cc(CNC4(C)CCC4)cc3C(F)(F)F)C2=O)c1)c1nncn1C` (single isomer, unassigned) [Compound 171, 2-(3-(1-(4-methyl-4H-1,2,4-triazol-3-yl)ethyl)phenyl)-6-(((1-methylcyclobutyl)amino)methyl)-4-(trifluoromethyl)isoindolin-1-one] returned a Kd of 1700 nM. Further, in assay [2], the IC50 came to 1100 nM and the “fold-selectivity (Cbl-b over C-cbl)” value is 2.0x. This compound also came in with an IC50 in assay [3] of 2300 nM. In assay [4], this compound yielded a Fold of selectivity of 2.1× and an equilibrium dissociation constant (Kd) of 800 nM.

`CO[C@H]1C[C@@](c2cccc(N3Cc4c(cc(CN5CCN(C)C[C@@H]5C(C)C)cc4C(F)(F)F)C3=O)c2)(c2nncn2C)C1` (single isomer, unassigned) [Compound 172] registered a Kd in assay [1] of 310 nM. Moreover, in assay [2], inhibition was half-maximal at 88 nM (IC50) and the “fold-selectivity (Cbl-b over C-cbl)” value came to 3.4x. In addition, the IC50 in assay [3] was determined as 290 nM. In assay [4], the Fold of selectivity is listed as 4.7× and the Kd was 67 nM.

Consider `C[C@H](NC1(C)CCC1)c1cc2c(c(C(F)(F)F)c1)CN(c1cccc(C3(c4nncn4C)CC(F)(F)C3)c1)C2=O` (single isomer, unassigned) [Compound 173], for which binding in assay [1] was characterised by a dissociation constant (Kd) of 49 nM. Moreover, in assay [2], the IC50 was 20 nM and the “fold-selectivity (Cbl-b over C-cbl)” value was determined as 2.2x. In assay [3], the IC50 is 45 nM. Further, in assay [4], the Fold of selectivity worked out at 6.3× and the Kd was determined as 7.9 nM.

Regarding `C[C@@H](NC1(C)CCC1)c1cc2c(c(C(F)(F)F)c1)CN(c1cccc(C3(c4nncn4C)CC(F)(F)C3)c1)C2=O` (single isomer, unassigned) [Compound 174], in assay [1], the Kd turned out to be 1.1 nM. Further, in assay [2], the IC50 came out at 8.5 nM and the “fold-selectivity (Cbl-b over C-cbl)” value was 0.80x. The compound further displayed an IC50 in assay [3] of 6.8 nM. In assay [4], this compound registered a Fold of selectivity of 2.8× and a Kd of 0.4 nM.

With `CO[C@H]1C[C@@](c2cccc(N3Cc4c(cc([C@@H](C)NC5(C)CCC5)cc4C(F)(F)F)C3=O)c2)(c2nncn2C)C1` (single isomer, unassigned) [Compound 175], the dissociation constant Kd in assay [1] stood at 6 nM; in assay [4], 0.95 nM. The values for the IC50 in assay [2] and in assay [3] were 9.6 nM and 9.7 nM, respectively. In assay [2], the “fold-selectivity (Cbl-b over C-cbl)” value came to 1.0x. This compound gave a Fold of selectivity in assay [4] of 6.4×.

Take `CO[C@H]1C[C@@](c2cccc(N3Cc4c(cc([C@H](C)NC5(C)CCC5)cc4C(F)(F)F)C3=O)c2)(c2nncn2C)C1` (single isomer, unassigned) [Compound 176]: the affinity in assay [1], expressed as Kd, was 280 nM. For the same compound, in assay [2], the IC50 was 62 nM and the “fold-selectivity (Cbl-b over C-cbl)” value came out at 3.4x. This compound yielded an IC50 in assay [3] of 220 nM. In assay [4], this compound had a Fold of selectivity of 6.8× and a Kd of 41 nM.

For `CO[C@H]1C[C@](c2cccc(N3Cc4c(cc([C@@H](C)NC5(C)CCC5)cc4C(F)(F)F)C3=O)c2)(c2nncn2C)C1` (single isomer, unassigned) [Compound 184], binding in assay [1] was characterised by a dissociation constant (Kd) of 2.5 nM. In addition, in assay [2], the 50% inhibitory concentration (IC50) stood at 7.6 nM and the “fold-selectivity (Cbl-b over C-cbl)” value is reported as 1.1x. The compound also displayed an IC50 in assay [3] of 8.3 nM. In assay [4], this compound had a Fold of selectivity of 6.3× and a Kd of 0.42 nM.

For `CO[C@H]1C[C@](c2cccc(N3Cc4c(cc([C@H](C)NC5(C)CCC5)cc4C(F)(F)F)C3=O)c2)(c2nncn2C)C1` (single isomer, unassigned) [Compound 185], the Kd in assay [1] amounted to 97 nM. For the same compound, in assay [2], inhibition was half-maximal at 23 nM (IC50) and the “fold-selectivity (Cbl-b over C-cbl)” value came out at 6.7x. The same compound gave an IC50 in assay [3] of 150 nM. In assay [4], this compound displayed a Fold of selectivity of 29× and a Kd of 3.2 nM.

In assay [1], `CC(C)[C@H]1CN(C)CCN1Cc1cc(Cl)c2c(c1)C(=O)N(c1cccc(C3(c4nncn4C)CC4(COC4)C3)c1)C2` (single isomer, unassigned) [Compound 204] yielded a Kd of 15 nM. In addition, in assay [2], it took 13 nM to reach half-maximal inhibition (IC50) and the “fold-selectivity (Cbl-b over C-cbl)” value is on record as 2.3x. In assay [3], this compound registered an IC50 of 29 nM. In assay [4], this compound registered a Fold of selectivity of 4.1× and a Kd of 3.7 nM.

Turning to `C=C[C@@H](C)Nc1cc(N2Cc3c(cc(CNC4(C)CCC4)cc3C(F)(F)F)C2=O)cc([C@]2(c3nncn3C)C[C@H](OC)C2)c1` (single isomer, unassigned) [Compound 219], the results for the Kd in assay [1] and in assay [4] were 29 nM and 4.5 nM, respectively. The IC50 in assay [2] turned out to be 13 nM; in assay [3], 36 nM. Besides, in assay [2], the “fold-selectivity (Cbl-b over C-cbl)” value was 2.7x. The same compound returned a Fold of selectivity in assay [4] of 6.5×.

Take `C=C[C@H](C)Nc1cc(N2Cc3c(cc(CNC4(C)CCC4)cc3C(F)(F)F)C2=O)cc([C@]2(c3nncn3C)C[C@H](OC)C2)c1` (single isomer, unassigned) [Compound 220]: the affinity in assay [1], expressed as Kd, was 34 nM. Moreover, in assay [2], the IC50 is 13 nM and the “fold-selectivity (Cbl-b over C-cbl)” value worked out at 3.0x. In assay [3], the IC50 came to 39 nM. In assay [4], the Fold of selectivity came to 13× and binding was put at a Kd of 2.7 nM.

`CO[C@H]1C[C@](c2cc(N[C@H](C)CC#N)cc(N3Cc4c(cc(CNC5(C)CCC5)cc4C(F)(F)F)C3=O)c2)(c2nncn2C)C1` (single isomer, unassigned) [Compound 221] gave a Kd in assay [1] of 7.6 nM. For the same compound, in assay [2], the IC50 worked out at 11 nM and the “fold-selectivity (Cbl-b over C-cbl)” value is reported as 1.5x. The IC50 in assay [3] is 16 nM. In assay [4], the Fold of selectivity is on record as 5.8× and the Kd was 1.3 nM.

As to `CO[C@H]1C[C@](c2cc(N[C@@H](C)CC#N)cc(N3Cc4c(cc(CNC5(C)CCC5)cc4C(F)(F)F)C3=O)c2)(c2nncn2C)C1` (single isomer, unassigned) [Compound 225], the Kd in assay [1] stood at 39 nM. In addition, in assay [2], the IC50 was 18 nM and the “fold-selectivity (Cbl-b over C-cbl)” value worked out at 4.0x. In assay [3], this compound displayed a half-inhibitory concentration (IC50) of 72 nM. In assay [4], the Fold of selectivity is listed as 5.6× and the Kd turned out to be 6.9 nM.

The compound `CO[C@H]1C[C@@](c2cc(N[C@H](C)CC#N)cc(N3Cc4c(cc(CNC5(C)CCC5)cc4C(F)(F)F)C3=O)c2)(c2nncn2C)C1` (single isomer, unassigned) [Compound 228] showed a Kd in assay [1] of 16 nM. In assay [2], the midpoint of inhibition, the IC50, lay at 16 nM and the “fold-selectivity (Cbl-b over C-cbl)” value is 1.3x. Further, the IC50 in assay [3] stood at 21 nM. Besides, in assay [4], the Fold of selectivity was found to be 8.7× and the Kd amounted to 1.9 nM.

With `CO[C@H]1C[C@@](c2cc(N[C@@H](C)CC#N)cc(N3Cc4c(cc(CNC5(C)CCC5)cc4C(F)(F)F)C3=O)c2)(c2nncn2C)C1` (single isomer, unassigned) [Compound 233], the Kd in assay [1] turned out to be 150 nM. For the same compound, in assay [2], the IC50 was found to be 40 nM and the “fold-selectivity (Cbl-b over C-cbl)” value turned out to be 5.0x. Half-maximal inhibition in assay [3] (IC50) required 200 nM. Besides, in assay [4], the Fold of selectivity is 7.1× and the Kd turned out to be 21 nM.

Compound `Cn1cnnc1[C@H](c1cccc(N2Cc3c(cc(CNC4(C)CCC4)cc3C(F)(F)F)C2=O)c1)C1CCC1` (single isomer, unassigned) [Compound 259] yielded a Kd in assay [1] of 1.1 nM. Moreover, in assay [2], 16 nM corresponded to half-maximal inhibition (IC50) and the “fold-selectivity (Cbl-b over C-cbl)” value stood at 1.0x. In addition, in assay [3], the IC50 amounted to 16 nM. Further, in assay [4], the Fold of selectivity is listed as 5.5× and binding was characterised by a dissociation constant (Kd) of 0.22 nM.

Turning to `Cn1cnnc1[C@H](c1cccc(N2Cc3c(cc(CNC4(C)CCC4)cc3C(F)(F)F)C2=O)c1)C1CC(OCC(F)F)C1` (single isomer, unassigned) [Compound 262], binding in assay [1] was characterised by a dissociation constant (Kd) of 150 nM. Further, in assay [2], the IC50 turned out to be 38 nM and the “fold-selectivity (Cbl-b over C-cbl)” value turned out to be 7.1x. In assay [3], this compound returned an IC50 of 270 nM. Moreover, in assay [4], the Fold of selectivity was 12× and the Kd came out at 13 nM.

`Cn1cnnc1[C@H](c1cccc(N2Cc3c(cc(CNC4(C)CCC4)cc3C(F)(F)F)C2=O)c1)C1CC(OCC(F)F)C1` (single isomer, unassigned) [Compound 263] came in with an equilibrium dissociation constant (Kd) in assay [1] of 10 nM. Also, in assay [2], the IC50 came to 10 nM and the “fold-selectivity (Cbl-b over C-cbl)” value is listed as 1.8x. In assay [3], this compound came in with an IC50 of 18 nM. Further, in assay [4], the Fold of selectivity was determined as 5.4× and the affinity, expressed as Kd, was 1.9 nM.

As for `CCOC1CC([C@H](c2cccc(N3Cc4c(cc(CNC5(C)CCC5)cc4C(F)(F)F)C3=O)c2)c2nncn2C)C1` (single isomer, unassigned) [Compound 265], the results for the Kd in assay [1] and in assay [4] were 1300 nM and 180 nM, respectively. Further, the IC50 came out at 310 nM in assay [2] and 3400 nM in assay [3]. In addition, in assay [2], the “fold-selectivity (Cbl-b over C-cbl)” value is 11x. The compound further displayed a Fold of selectivity in assay [4] of 7.5×.

The compound `CCOC1CC([C@@H](c2cccc(N3Cc4c(cc(CNC5(C)CCC5)cc4C(F)(F)F)C3=O)c2)c2nncn2C)C1` (single isomer, unassigned) [Compound 267] had a Kd in assay [1] of 190 nM. Also, in assay [2], half-maximal inhibition (IC50) was put at 37 nM and the “fold-selectivity (Cbl-b over C-cbl)” value was 4.5x. The compound further registered an IC50 in assay [3] of 170 nM. In assay [4], this compound came in with a Fold of selectivity of 7.6× and a Kd of 25 nM.
